Like-named read-outs stand apart in the source and are kept apart here.

What all share (type): biochemical
The target in assay [1] is T1, HsOPRT (Homo sapiens, UniProt P11172).
T1 construct: This HsUMPase truncation construct only expresses its HsOPRT domain; His6 (thrombin-cleavable) (N, cleaved yes); made in house; host or cells: E. coli BL21-AI
T1 sequence (P11172 1-245): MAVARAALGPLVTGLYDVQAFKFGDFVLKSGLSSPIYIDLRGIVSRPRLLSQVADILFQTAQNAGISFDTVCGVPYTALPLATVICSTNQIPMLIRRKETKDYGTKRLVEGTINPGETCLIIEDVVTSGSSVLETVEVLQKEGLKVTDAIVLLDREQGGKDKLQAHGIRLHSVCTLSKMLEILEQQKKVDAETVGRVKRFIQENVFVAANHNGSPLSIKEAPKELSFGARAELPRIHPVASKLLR
The assay is described as follows: HsOPRT kinetic and inhibition assay (OMP with PA or PPi). As to the method: (§1) Expression and Purification of PfOPRT and HsOPRT. The pDEST14 vectors encoding the two OPRT genes were transformed into BL21-AI E. coli competent cells and grown in LB+Amp (100 μg mL^−1) at 37° C. to an OD600 of 0.6. Protein expression was induced by adding 0.02% L-arabinose with overnight growth at 37° C. Cells were harvested by centrifugation at 4° C., weighted and resuspended in lysis buffer (20 mM Tris-HCl, 500 mM NaCl and 5 mM Imidazole, pH=7.9, 3 mL/gram cell pellet). Lysozyme (100 μg mL^−1), DNase I (10 μg mL^−1) and protease inhibitor (1 tablet/8 grams of cells) (Roche Applied Science, Indianapolis, Ind.) were added to the solution. Following disruption in a French Press, cell lysate was centrifuged at 30,000 g for […] at 4° C. […] The 6×His-OPRTs were eluted with a gradient of imidazole (20 mM ˜500 mM). The OPRT bands were visualized on SDS-PAGE gels and fractions with high purity were pooled, made to 10% glycerol and 10 mM β-ME (final concentration), concentrated and dialyzed overnight at 4° C. to remove imidazole. His-tags were removed during dialysis by the presence of thrombin (1 unit/0.1 mg). His-tag free OPRTs were purified by Superdex 200 26/60 Gel filtration column, concentrated and stored at −80° C. […] Reactions were monitored by the absorbance increase at 295 nm to give an extinction coefficient of 3.67 mM^−1 cm^−1.

In assay [2] the target is T2, PfOPRT (Plasmodium falciparum, UniProt Q8I3Y0).
T2 construct: His6 (thrombin-cleavable) (N, cleaved yes); made in house; host or cells: E. coli BL21-AI
T2 sequence (Q8I3Y0 1-281): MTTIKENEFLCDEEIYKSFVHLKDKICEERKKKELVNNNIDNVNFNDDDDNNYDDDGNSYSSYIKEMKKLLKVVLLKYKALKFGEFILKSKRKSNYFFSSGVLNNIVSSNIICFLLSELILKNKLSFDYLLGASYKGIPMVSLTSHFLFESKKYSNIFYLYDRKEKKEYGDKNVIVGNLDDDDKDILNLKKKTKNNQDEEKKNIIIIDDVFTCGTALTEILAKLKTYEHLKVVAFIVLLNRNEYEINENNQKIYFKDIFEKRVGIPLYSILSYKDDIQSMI
Nature of the assay: PfOPRT kinetic and inhibition assay (OMP with PA or PPi). As to the method:
as §1

In assay [3] the target is T2, PfOPRT. The assay is described as follows: PfOPRT catalytic activity with p-nitrophenyl β-D-ribose 5′-phosphate as substrate. As to conditions: with PA or pyrophosphate; absorbance at 400 nm; conditions could detect 10^−6 of normal activity. On the procedure: (§2) The PfOPRT and HsOPRT catalytic activities with p-nitrophenyl β-D-ribose 5′-phosphate were measured at 25° C. in solutions containing 50 mM Tris-HCl (pH=8.0), 5 mM MgCl2 and varied concentrations of p-nitrophenyl β-D-ribose 5′-phosphate and PA or pyrophosphate. Reaction rates were monitored through the absorbance increase at 400 nm.

For assay [4], the target named is T1, HsOPRT. Nature of the assay: HsOPRT catalytic activity with p-nitrophenyl β-D-ribose 5′-phosphate as substrate. The settings on record: with PA or pyrophosphate; absorbance at 400 nm. On the procedure: as §2
[5] abbreviates: competitive inhibition with respect to OMP, PPi as substrate, 25° C., pH 8.0.

`O=C(O)c1cc(=O)[nH]c(=O)n1[C@@H]1O[C@H](COP(=O)(O)O)[C@@H](O)[C@H]1O` [OMP, orotidine 5′-monophosphate, reference compound]: the “reduction of kcat/Km with PA relative to PPi as the nucleophile” value on HsOPRT [1] (OMP, PA versus PPi) amounted to 8.3 fold; on PfOPRT [2] (OMP, PA versus PPi), 110 fold.

Regarding `O=[N+]([O-])c1ccc(O[C@@H]2O[C@H](COP(=O)(O)O)[C@@H](O)[C@H]2O)cc1` [p-nitrophenyl β-D-ribose 5′-phosphate], the “catalytic activity as substrate (O-glycosidic bond cleavage)” value on PfOPRT [3] was “did not catalyze the O-glycosidic bond cleavage”; at HsOPRT [4], “Poor catalytic activity”. Besides, the inhibitory constant (Ki) – broadly, the dissociation constant of the complex between target and ligand, obtained from inhibition or displacement – is 41 nM on HsOPRT [1] and 40 nM at PfOPRT [2]. For the same compound, the Km/Ki at HsOPRT [1] (Km of OMP over Ki of inhibitor) was 38; at PfOPRT [2] (Km of OMP over Ki of inhibitor), 93.

Take `O=[N+]([O-])c1ccc(O[C@@H]2O[C@H](CO)[C@@H](O)[C@H]2O)cc1` [p-nitrophenyl β-D-ribose, reference compound]: the results for the Ki on HsOPRT [1] (setting [5]) and on PfOPRT [2] (setting [5]) were 121 nM and 188 nM, respectively.

The record behind these values is US20110301104A1, “Transition state structure of orotate phosphoribosyl transferases and uses thereof” (priority 2008, published 2011).
